In brackets after ≈: the same amount, converted by molar mass.
Legend:
Salmonella typhimurium [1] = test: In vitro testing for minimum inhibitory concentration against Salmonella Typhimurium LT2 168; type: functional, Salmonella enterica subsp. enterica serovar Typhimurium
Salmonella typhimurium [2] = test: In vitro testing for minimum inhibitory concentration against Salmonella Typhimurium SL 1102; type: functional, Salmonella enterica subsp. enterica serovar Typhimurium
Escherichia coli = test: In vitro testing for minimum inhibitory concentration against Escherichia coli ATCC 11303.; type: functional
[3] = Salmonella enterica subsp. enterica serovar Typhimurium

Which results are given for `CC1(C)S[C@@H]2[C@H](NC(=O)[C@H](N)c3ccccc3)C(=O)N2[C@H]1C(=O)O` [AMPICILLIN]?
MIC (Salmonella typhimurium [1]; Salmonella enterica): 0.3 µM (≈ 0.105 µg/mL); MIC (Salmonella typhimurium [2]; Salmonella enterica): 2 µM (≈ 0.699 µg/mL); MIC (Escherichia coli): 1 µM (≈ 0.349 µg/mL)

Which results are given for `C[C@H](N)C(=O)N[C@@H](C)C(=O)NC[C@H](O)[C@H]1O[C@H](C(=O)O)C[C@@H](O)[C@H]1O`?
MIC (Salmonella typhimurium [1]; Salmonella enterica): 60 µM (≈ 21.8 µg/mL); MIC (Salmonella typhimurium [2]; Salmonella enterica): 4 µM (≈ 1.45 µg/mL); MIC (Escherichia coli): 4 µM (≈ 1.45 µg/mL)

Which results are given for `CSCCC(N)C(=O)NCC(O)C1OC(C(=O)O)CC(O)C1O` (stereo not given)?
MIC (Salmonella typhimurium [1]; Salmonella enterica): > 2000 µM; MIC (Salmonella typhimurium [2]; Salmonella enterica): > 2000 µM; MIC (Escherichia coli): > 2000 µM

What does the source list for `CC(N)C(=O)NCC(O)C1OC(C(=O)O)CC(O)C1O` (stereo not given)?
MIC (Salmonella typhimurium [1]; Salmonella enterica): > 2000 µM; MIC (Salmonella typhimurium [2]; Salmonella enterica): > 2000 µM; MIC (Escherichia coli): > 2000 µM

What does the source list for GENTAMICIN?
MIC (Salmonella typhimurium [1]; [3]): < 0.05 µM; MIC (Salmonella typhimurium [2]; [3]): < 0.05 µM; MIC (Escherichia coli): < 0.05 µM

From ChEMBL document CHEMBL1123573, “Design and synthesis of peptide derivatives of a 3-deoxy-D-manno-2-octulosonic acid (KDO) analogue as novel antibacterial agents acting upon lipopolysaccharide biosynthesis” (1987)
